Data: ChEMBL document CHEMBL3886344, “Compounds of modulating TRPV3 function” (2015)

Assay: Inhibition Assay: To determine whether compounds were selective for TRPV3 inhibition over inhibition of other ion channel types, the human ERG (hERG), NaV1.2, and TRPV1 (hTRPV1) channels and the rat TRPV6 (rTRPV6) channel were also stably transfected and expressed or induced to express in mammalian cell lines. The methods for measuring currents from these channels are well-established and have been described in numerous publications (See, Weerapura et al., 2002, J Physiology 540: 15-27; Rush et al., 2005, J Physiology 564: 808-815; Caterina et al., 1997, Nature 389: 816-824; Hoenderhop et al., 2001, J Physiology 537: 747-761; Clapham et al., 2003, Pharmacol Rev 55: 591-596).

## Cc1cccc2c1N(C(=O)CSc1ccc(Cl)cn1)CCC2
  IC50: > 30 µM
